Experimental data: publication PMC9481151, “Discovery of new symmetrical and asymmetrical nitrile-containing 1,4-dihydropyridine derivatives as dual kinases and P-glycoprotein inhibitors: synthesis, in vitro assays, and in silico studies” (Journal of Enzyme Inhibition and Medicinal Chemistry, 2022)

Experiments:
OVCAR-5 = experiment: NCI single dose (10 µM) SRB screen; format: cell-based, human; conditions: ovarian cancer, 48 h
TK-10 = experiment: NCI single dose (10 µM) SRB screen; format: cell-based, human; conditions: renal cancer, 48 h
HT29 = experiment: NCI single dose (10 µM) SRB screen; format: cell-based, human; conditions: colon cancer, 48 h
HCC-2998 = experiment: NCI single dose (10 µM) SRB screen; format: cell-based, human; conditions: colon cancer, 48 h
EKVX = experiment: NCI single dose (10 µM) SRB screen; format: cell-based, human; conditions: non-small cell lung cancer, 48 h
SK-MEL-28 = experiment: NCI single dose (10 µM) SRB screen; format: cell-based, human; conditions: melanoma, 48 h
NCI-H23 = experiment: NCI single dose (10 µM) SRB screen; format: cell-based, human; conditions: non-small cell lung cancer, 48 h
PC-3 = experiment: NCI single dose (10 µM) SRB screen; format: cell-based, human; conditions: prostate cancer, 48 h
NCI-H522 = experiment: NCI single dose (10 µM) SRB screen; format: cell-based, human; conditions: non-small cell lung cancer, 48 h
Escherichia coli = experiment: Agar well diffusion method; conditions: relative to ciprofloxacin
SNB-75 = experiment: NCI single dose (10 µM) SRB screen; format: cell-based, human; conditions: CNS cancer, 48 h
Staphylococcus aureus = experiment: Agar well diffusion method
CCRF-CEM = experiment: NCI single dose (10 µM) SRB screen; format: cell-based, human; conditions: leukaemia, 48 h
NCI 60 cancer cell lines = experiment: NCI single dose (10 µM) SRB screen, mean over panel; format: cell-based, human; conditions: mean over 60 cell lines, 48 h
M14 = experiment: NCI single dose (10 µM) SRB screen; format: cell-based, human; conditions: melanoma, 48 h
MOLT-4 = experiment: NCI single dose (10 µM) SRB screen; format: cell-based, human; conditions: leukaemia, 48 h
K-562 = experiment: NCI single dose (10 µM) SRB screen; format: cell-based, human; conditions: leukaemia, 48 h
COLO 205 = experiment: NCI single dose (10 µM) SRB screen; format: cell-based, human; conditions: colon cancer, 48 h
NCI/ADR-RES = experiment: NCI single dose (10 µM) SRB screen; format: cell-based, human; conditions: ovarian cancer, 48 h
RPMI-8226 = experiment: NCI single dose (10 µM) SRB screen; format: cell-based, human; conditions: leukaemia, 48 h
T-47D = experiment: NCI single dose (10 µM) SRB screen; format: cell-based, human; conditions: breast cancer, 48 h
OVCAR-3 = experiment: NCI single dose (10 µM) SRB screen; format: cell-based, human; conditions: ovarian cancer, 48 h
SF-295 = experiment: NCI single dose (10 µM) SRB screen; format: cell-based, human; conditions: CNS cancer, 48 h
HS578T = experiment: NCI single dose (10 µM) SRB screen; format: cell-based, human; conditions: breast cancer, 48 h
HCT-15 = experiment: NCI single dose (10 µM) SRB screen; format: cell-based, human; conditions: colon cancer, 48 h
MDA-MB-231 = experiment: NCI single dose (10 µM) SRB screen; format: cell-based, human; conditions: breast cancer, 48 h
786-0 = experiment: NCI single dose (10 µM) SRB screen; format: cell-based, human; conditions: renal cancer, 48 h
SK-MEL-2 = experiment: NCI single dose (10 µM) SRB screen; format: cell-based, human; conditions: melanoma, 48 h
Candida albicans = experiment: Agar well diffusion method
SN12C = experiment: NCI single dose (10 µM) SRB screen; format: cell-based, human; conditions: renal cancer, 48 h
SK-MEL-5 = experiment: NCI single dose (10 µM) SRB screen; format: cell-based, human; conditions: melanoma, 48 h
DU-145 = experiment: NCI single dose (10 µM) SRB screen; format: cell-based, human; conditions: prostate cancer, 48 h
KM12 = experiment: NCI single dose (10 µM) SRB screen; format: cell-based, human; conditions: colon cancer, 48 h
MDA-MB-468 = experiment: NCI single dose (10 µM) SRB screen; format: cell-based, human; conditions: breast cancer, 48 h
NCI-H226 = experiment: NCI single dose (10 µM) SRB screen; format: cell-based, human; conditions: non-small cell lung cancer, 48 h
SF-268 = experiment: NCI single dose (10 µM) SRB screen; format: cell-based, human; conditions: CNS cancer, 48 h
NCI-H460 = experiment: NCI single dose (10 µM) SRB screen; format: cell-based, human; conditions: non-small cell lung cancer, 48 h
MALME-3M = experiment: NCI single dose (10 µM) SRB screen; format: cell-based, human; conditions: melanoma, 48 h
MDA-MB-435 = experiment: NCI single dose (10 µM) SRB screen; format: cell-based, human; conditions: melanoma, 48 h
Bacillus subtilis = experiment: Agar well diffusion method
LOX IMVI = experiment: NCI single dose (10 µM) SRB screen; format: cell-based, human; conditions: melanoma, 48 h
HOP-62 = experiment: NCI single dose (10 µM) SRB screen; format: cell-based, human; conditions: non-small cell lung cancer, 48 h
SK-OV-3 = experiment: NCI single dose (10 µM) SRB screen; format: cell-based, human; conditions: ovarian cancer, 48 h
IGROV1 = experiment: NCI single dose (10 µM) SRB screen; format: cell-based, human; conditions: ovarian cancer, 48 h
Pseudomonas aeruginosa = experiment: Agar well diffusion method
HCT-116 = experiment: NCI single dose (10 µM) SRB screen; format: cell-based, human; conditions: colon cancer, 48 h
SNB-19 = experiment: NCI single dose (10 µM) SRB screen; format: cell-based, human; conditions: CNS cancer, 48 h
U251 = experiment: NCI single dose (10 µM) SRB screen; format: cell-based, human; conditions: CNS cancer, 48 h
SW-620 = experiment: NCI single dose (10 µM) SRB screen; format: cell-based, human; conditions: colon cancer, 48 h
SR = experiment: NCI single dose (10 µM) SRB screen; format: cell-based, human; conditions: leukaemia, 48 h

CC1=C(C(=O)OC(C)C)C(c2cccc(C#N)c2)C(C(=O)OC(C)C)=C(C)N1 [Compound 1c, Diisopropyl 4-(3-cyanophenyl)-2,6-dimethyl-1,4-dihydropyridine-3,5-dicarboxylate]
GI% OVCAR-5 (OVCAR-5): – (Only GI% ≥ 10 are shown) | GI% TK-10 (TK-10): – (Only GI% ≥ 10 are shown) | GI% HT29 (HT29): – (Only GI% ≥ 10 are shown) | GI% HCC-2998 (HCC-2998): – (Only GI% ≥ 10 are shown) | GI% EKVX (EKVX): – (Only GI% ≥ 10 are shown) | GI% SK-MEL-28 (SK-MEL-28): – (Only GI% ≥ 10 are shown) | GI% NCI-H23 (NCI-H23): – (Only GI% ≥ 10 are shown) | GI% PC-3 (PC-3): 29% | GI% NCI-H522 (NCI-H522): 11% | % activity index, E. coli (Escherichia coli): – (Values below 25 are of limited value and not shown as they refer either to inactive or non-diffusing compounds) | GI% SNB-75 (SNB-75): 20% | zone of inhibition at 1000 µg/mL (Staphylococcus aureus; Staphylococcus aureus, 24 h, read-out: Diameter of inhibition zone, S. aureus): 11 mm | % activity index, S. aureus (Staphylococcus aureus; relative to ciprofloxacin): 45.8% | GI% CCRF-CEM (CCRF-CEM): – (Only GI% ≥ 10 are shown) | Mean GI% (NCI 60 cancer cell lines): 6% | GI% M14 (M14): – (Only GI% ≥ 10 are shown) | GI% MOLT-4 (MOLT-4): 17% | GI% K-562 (K-562): 25% | GI% COLO 205 (COLO 205): – (Only GI% ≥ 10 are shown) | GI% NCI/ADR-RES (NCI/ADR-RES): – (Only GI% ≥ 10 are shown) | GI% RPMI-8226 (RPMI-8226): 17% | GI% T-47D (T-47D): 30% | GI% OVCAR-3 (OVCAR-3): – (Only GI% ≥ 10 are shown) | GI% SF-295 (SF-295): – (Only GI% ≥ 10 are shown) | GI% HS578T (HS578T): – (Only GI% ≥ 10 are shown) | GI% HCT-15 (HCT-15): 10% | GI% MDA-MB-231 (MDA-MB-231): – (Only GI% ≥ 10 are shown) | GI% 786-0 (786-0): 16% | GI% SK-MEL-2 (SK-MEL-2): – (Only GI% ≥ 10 are shown) | zone of inhibition at 1000 µg/mL (Candida albicans; Candida albicans, 24 h, read-out: Diameter of inhibition zone, C. albicans): 10 mm | % activity index, C. albicans (Candida albicans; relative to clotrimazole): 37% | GI% SN12C (SN12C): – (Only GI% ≥ 10 are shown) | GI% SK-MEL-5 (SK-MEL-5): – (Only GI% ≥ 10 are shown) | GI% DU-145 (DU-145): – (Only GI% ≥ 10 are shown) | GI% KM12 (KM12): – (Only GI% ≥ 10 are shown) | GI% MDA-MB-468 (MDA-MB-468): 22% | GI% NCI-H226 (NCI-H226): – (Only GI% ≥ 10 are shown) | GI% SF-268 (SF-268): – (Only GI% ≥ 10 are shown) | GI% NCI-H460 (NCI-H460): – (Only GI% ≥ 10 are shown) | GI% MALME-3M (MALME-3M): – (Only GI% ≥ 10 are shown) | GI% MDA-MB-435 (MDA-MB-435): – (Only GI% ≥ 10 are shown) | zone of inhibition at 1000 µg/mL (Bacillus subtilis; Bacillus subtilis, 24 h, read-out: Diameter of inhibition zone, B. subtilis): 6 mm | % activity index, B. subtilis (Bacillus subtilis; relative to ciprofloxacin): 26.1% | GI% LOX IMVI (LOX IMVI): – (Only GI% ≥ 10 are shown) | GI% HOP-62 (HOP-62): – (Only GI% ≥ 10 are shown) | GI% SK-OV-3 (SK-OV-3): – (Only GI% ≥ 10 are shown) | GI% IGROV1 (IGROV1): – (Only GI% ≥ 10 are shown) | zone of inhibition at 1000 µg/mL (Pseudomonas aeruginosa; Pseudomonas aeruginosa, 24 h, read-out: Diameter of inhibition zone, P. aeruginosa): 8 mm | % activity index, P. aeruginosa (Pseudomonas aeruginosa; relative to ciprofloxacin): 34.8% | GI% HCT-116 (HCT-116): 13% | GI% SNB-19 (SNB-19): – (Only GI% ≥ 10 are shown) | GI% U251 (U251): – (Only GI% ≥ 10 are shown) | GI% SW-620 (SW-620): – (Only GI% ≥ 10 are shown) | GI% SR (SR): 18%
